According to patent US5159081A, “Intermediates of peripherally selective N-carbonyl-3,4,4-trisubstituted piperidine opioid antagonists” (Eli Lilly and Company, priority 1991, dated 1992):
Read-outs that look alike come from different tables or passages of the source.

What was measured:
[1] = biological target: T1, opioid receptor (Mus musculus, UniProt P42866); assay: in vivo; design: species or system CF-1 male mice; conditions: sc; mouse writhing test; […]; s.c. 20 min before acetic acid; read-out: AD50 (the source's name)
T1 construct: Five CF-1 male mice (Charles River, Portage, MI); from tissue; host or cells: living CF-1 male mice (whole animal, endogenous receptor)
T1 sequence (P42866 whole entry): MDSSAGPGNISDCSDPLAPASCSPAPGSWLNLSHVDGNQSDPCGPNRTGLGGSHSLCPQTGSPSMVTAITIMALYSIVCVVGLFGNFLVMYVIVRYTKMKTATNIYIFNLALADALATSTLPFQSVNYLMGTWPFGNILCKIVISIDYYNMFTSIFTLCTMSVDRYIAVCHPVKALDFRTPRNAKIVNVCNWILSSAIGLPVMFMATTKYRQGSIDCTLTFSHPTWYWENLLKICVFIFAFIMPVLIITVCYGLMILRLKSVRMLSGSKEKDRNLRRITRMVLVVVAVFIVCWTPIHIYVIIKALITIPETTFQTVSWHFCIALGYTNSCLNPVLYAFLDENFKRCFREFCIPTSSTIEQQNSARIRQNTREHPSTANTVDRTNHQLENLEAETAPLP

[2] = biological target: peripheral opioid receptors (Mus musculus, UniProt P42866); assay: mouse diarrhea test: precipitated diarrhea in morphine-maintained mice (peripheral opioid activity); format: in vivo; conditions: mouse diarrhea test, morphine-maintained mice, subcutaneous or oral, 30 min observation
peripheral opioid receptors (Mus musculus, UniProt P42866), sequence (P42866 whole entry): as above

[3] = tested on: peripheral opioid receptors; assay: as above; format: in vivo; conditions: AD50 mouse writhing / ED50 mouse diarrhea; higher = greater relative peripheral antagonism
[4] = biological target: T2, mu receptor (Rattus norvegicus, UniProt P33535); assay: Naloxone [3H] opioid receptor binding assay (mu receptor); design: species or system rat (male Sprague Dawley); conditions: 20 min; for Ki: rat whole brain minus cerebellum, pH 7.4, 37° C., read-out: Ki
T2 construct: The brain tissue, rat whole brain minus cerebellum for mu was homogenized; from tissue; host or cells: brain minus cerebellum of male Sprague Dawley rats, homogenate fraction
T2 sequence (P33535 whole entry): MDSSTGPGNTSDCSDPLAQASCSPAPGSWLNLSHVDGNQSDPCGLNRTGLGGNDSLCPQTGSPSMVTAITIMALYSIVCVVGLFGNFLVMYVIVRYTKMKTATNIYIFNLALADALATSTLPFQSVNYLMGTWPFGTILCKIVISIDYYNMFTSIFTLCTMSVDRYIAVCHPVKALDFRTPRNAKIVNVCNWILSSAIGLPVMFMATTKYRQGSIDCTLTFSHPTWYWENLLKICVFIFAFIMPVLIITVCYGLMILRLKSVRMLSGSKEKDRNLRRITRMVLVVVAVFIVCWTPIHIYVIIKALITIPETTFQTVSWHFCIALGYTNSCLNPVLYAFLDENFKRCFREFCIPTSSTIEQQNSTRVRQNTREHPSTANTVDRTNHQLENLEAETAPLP

[5] = pH 7.4, read-out: % displacement at 10 nM
[6] = pH 7.4, read-out: % displacement at 100 nM
[7] = pH 7.4, 10 nM test compound, [3H]naloxone 0.5 nM, mu receptor, read-out: % displacement at 10 nM
[8] = pH 7.4, 100 nM test compound, [3H]naloxone 0.5 nM, mu receptor, read-out: % displacement at 100 nM

## CC1CN(CCNC(=O)[C@H](CCCNC(=N)N[N+](=O)[O-])NC(=O)OC(C)(C)C)CCC1(C)c1cccc(O)c1 (stereo partly drawn) [Example 44, (1-(((2-(Trans-4-(3-hydroxyphenyl)-3,4-dimethyl-1-piperidinyl)ethyl)amino)carbonyl)-4-((imino(nitroamino)methyl)amino)butyl) carbamic acid, 1,1-dimethylethyl ester]
[1]
  ED50: > 2 mg/kg
[2]
  ED50: 0.07 mg/kg
[3]
  Ratio (ratio of AD50 to ED50): > 30
[4]; [5]
  inhibition at 0.01 µM: 63%
[4]; [6]
  inhibition at 0.1 µM: 85%
[4]; [3H]naloxone 0.5 nM
  Ki: 2.34 nM

## C[C@H]1CN(C[C@H](CC2CCCCC2)NC(=O)CCCC(=O)O)CC[C@@]1(C)c1cccc(O)c1 [Example 45D]
[1]
  ED50: > 40 mg/kg
[2]
  ED50: 0.029 mg/kg
[3]
  Ratio (ratio of AD50 to ED50): > 1379
[4]; [5]
  inhibition at 0.01 µM: 82%
[4]; [6]
  inhibition at 0.1 µM: 94%
[4]; [3H]naloxone 0.5 nM
  Ki: 0.56 nM

## C[C@H]1CN(C[C@@H](CC2CCCCC2)NC(=O)CCCC(=O)O)CC[C@@]1(C)c1cccc(O)c1 [Example 46D]
[1]
  ED50: 6.5 mg/kg
[2]
  ED50: 0.09 mg/kg
[3]
  Ratio (ratio of AD50 to ED50): 72
[4]; [5]
  inhibition at 0.01 µM: 48%
[4]; [6]
  inhibition at 0.1 µM: 84%

## C[C@@H]1CN(C[C@H](CC2CCCCC2)NC(=O)CCCC(=O)O)CC[C@]1(C)c1cccc(O)c1 [Example 47D]
[1]
  ED50: > 40 mg/kg
[2]
  ED50: 0.01 mg/kg
[3]
  Ratio (ratio of AD50 to ED50): > 4000
[4]; [5]
  inhibition at 0.01 µM: 85%
[4]; [6]
  inhibition at 0.1 µM: 95%
[4]; [3H]naloxone 0.5 nM
  Ki: 1.55 nM

## C[C@@H]1CN(C[C@@H](CC2CCCCC2)NC(=O)CCCC(=O)O)CC[C@]1(C)c1cccc(O)c1 [Example 48D]
[1]
  ED50: > 40 mg/kg
[2]
  ED50: 0.05 mg/kg
[3]
  Ratio (ratio of AD50 to ED50): > 800
[4]; [5]
  inhibition at 0.01 µM: 30%
[4]; [6]
  inhibition at 0.1 µM: 78%

## COC(=O)CCCC(=O)N[C@@H](CC1CCCCC1)CN1CC[C@@](C)(c2cccc(O)c2)[C@@H](C)C1 [Example 50]
[1]
  ED50: 20 mg/kg
[2]
  ED50: 0.056 mg/kg
[3]
  Ratio (ratio of AD50 to ED50): 357
[4]; [5]
  inhibition at 0.01 µM: 87%
[4]; [6]
  inhibition at 0.1 µM: 99%
[4]; [3H]naloxone 0.5 nM
  Ki: 3.24 nM

## CCOC(=O)CCCC(=O)N[C@@H](CC1CCCCC1)CN1CC[C@@](C)(c2cccc(O)c2)[C@@H](C)C1 [Example 52]
[1]
  ED50: 28 mg/kg
[2]
  ED50: 0.02 mg/kg
[3]
  Ratio (ratio of AD50 to ED50): 1400
[4]; [5]
  inhibition at 0.01 µM: 87%
[4]; [6]
  inhibition at 0.1 µM: 96%
[4]; [3H]naloxone 0.5 nM
  Ki: 2.34 nM

## CCCOC(=O)CCCC(=O)N[C@@H](CC1CCCCC1)CN1CC[C@](C)(c2cccc(O)c2)[C@H](C)C1 [Example 53]
[1]
  ED50: > 40 mg/kg
[2]
  ED50: 1.06 mg/kg
[3]
  Ratio (ratio of AD50 to ED50): > 38
[4]; [5]
  inhibition at 0.01 µM: 50%
[4]; [6]
  inhibition at 0.1 µM: 88%

## CCCOC(=O)CCCC(=O)N[C@@H](CC1CCCCC1)CN1CC[C@@](C)(c2cccc(O)c2)[C@@H](C)C1 [Example 54]
[1]
  ED50: 27 mg/kg
[2]
  ED50: 0.0015 mg/kg
[3]
  Ratio (ratio of AD50 to ED50): 18000
[4]; [5]
  inhibition at 0.01 µM: 81%
[4]; [6]
  inhibition at 0.1 µM: 96%
[4]; [3H]naloxone 0.5 nM
  Ki: 5.07 nM

## CC(C)COC(=O)CCCC(=O)N[C@@H](CC1CCCCC1)CN1CC[C@](C)(c2cccc(O)c2)[C@H](C)C1 [Example 55]
[1]
  ED50: > 40 mg/kg
[2]; 0.5 h, read-out: ED50
  ED50: 0.05 mg/kg
[3]
  Ratio (ratio of AD50 to ED50): > 800
[4]; [7]
  inhibition at 0.01 µM: 40%
[4]; [8]
  inhibition at 0.1 µM: 86%

## CC(C)COC(=O)CCCC(=O)N[C@@H](CC1CCCCC1)CN1CC[C@@](C)(c2cccc(O)c2)[C@@H](C)C1 [Example 56]
[1]
  ED50: > 40 mg/kg
[2]; 0.5 h, read-out: ED50
  ED50: 0.002 mg/kg
[3]
  Ratio (ratio of AD50 to ED50): 20000
[4]; [7]
  inhibition at 0.01 µM: 61%
[4]; [8]
  inhibition at 0.1 µM: 92%

## CCCCCCCOC(=O)CCCC(=O)N[C@@H](CC1CCCCC1)CN1CC[C@@](C)(c2cccc(O)c2)[C@@H](C)C1 [Example 57]
[1]
  ED50: > 40 mg/kg
[2]; 0.5 h, read-out: ED50
  ED50: 0.068 mg/kg
[3]
  Ratio (ratio of AD50 to ED50): > 588
[4]; [7]
  inhibition at 0.01 µM: 0%
[4]; [8]
  inhibition at 0.1 µM: 9%

## CC(C)COC(=O)CCCC(=O)N[C@H](CC1CCCCC1)CN1CC[C@](C)(c2cccc(O)c2)[C@H](C)C1 [Example 58]
[1]
  ED50: > 40 mg/kg
[2]; 0.5 h, read-out: ED50
  ED50: 0.17 mg/kg
[3]
  Ratio (ratio of AD50 to ED50): > 235
[4]; [7]
  inhibition at 0.01 µM: 0%
[4]; [8]
  inhibition at 0.1 µM: 38%

## CC(C)COC(=O)CCCC(=O)N[C@H](CC1CCCCC1)CN1CC[C@@](C)(c2cccc(O)c2)[C@@H](C)C1 [Example 59]
[1]
  ED50: > 40 mg/kg
[2]; 0.5 h, read-out: ED50
  ED50: 0.059 mg/kg
[3]
  Ratio (ratio of AD50 to ED50): > 678
[4]; [7]
  inhibition at 0.01 µM: 6%
[4]; [8]
  inhibition at 0.1 µM: 53%

## C[C@@H]1CN(C[C@H](CC2CCCCC2)NC(=O)CCCC(=O)OCC(N)=O)CC[C@]1(C)c1cccc(O)c1 [Example 60]
[1]
  ED50: > 10 mg/kg
[2]
  ED50: 0.035 mg/kg
[3]
  Ratio (ratio of AD50 to ED50): > 285
[4]; [5]
  inhibition at 0.01 µM: 76%
[4]; [6]
  inhibition at 0.1 µM: 95%
[4]; [3H]naloxone 0.5 nM
  Ki: 5.96 nM

## C[C@H]1CN(C[C@H](CC2CCCCC2)NC(=O)CCCC(=O)OCC(N)=O)CC[C@@]1(C)c1cccc(O)c1 [Example 61]
[1]
  ED50: 22 mg/kg
[2]
  ED50: 0.13 mg/kg
[3]
  Ratio (ratio of AD50 to ED50): 169
[4]; [5]
  inhibition at 0.01 µM: 88%
[4]; [6]
  inhibition at 0.1 µM: 97%
[4]; [3H]naloxone 0.5 nM
  Ki: 2.86 nM

## CNC(=O)COC(=O)CCCC(=O)N[C@@H](CC1CCCCC1)CN1CC[C@](C)(c2cccc(O)c2)[C@H](C)C1 [Example 62]
[1]
  ED50: > 40 mg/kg
[2]
  ED50: 0.03 mg/kg
[3]
  Ratio (ratio of AD50 to ED50): > 1333
[4]; [5]
  inhibition at 0.01 µM: 70%
[4]; [6]
  inhibition at 0.1 µM: 96%

## CNC(=O)COC(=O)CCCC(=O)N[C@@H](CC1CCCCC1)CN1CC[C@@](C)(c2cccc(O)c2)[C@@H](C)C1 [Example 63]
[1]
  ED50: 12 mg/kg
[2]
  ED50: 0.003 mg/kg
[3]
  Ratio (ratio of AD50 to ED50): 4000
[4]; [5]
  inhibition at 0.01 µM: 87%
[4]; [6]
  inhibition at 0.1 µM: 99%
[4]; [3H]naloxone 0.5 nM
  Ki: 2.13 nM

## CCNC(=O)COC(=O)CCCC(=O)N[C@@H](CC1CCCCC1)CN1CC[C@](C)(c2cccc(O)c2)[C@H](C)C1 [Example 65]
[1]
  ED50: > 40 mg/kg
[2]
  ED50: 0.02 mg/kg
[3]
  Ratio (ratio of AD50 to ED50): > 2000
[4]; [5]
  inhibition at 0.01 µM: 67%
[4]; [6]
  inhibition at 0.1 µM: 93%

## CCNC(=O)COC(=O)CCCC(=O)N[C@@H](CC1CCCCC1)CN1CC[C@@](C)(c2cccc(O)c2)[C@@H](C)C1 [Example 66]
[1]
  ED50: 12.2 mg/kg
[2]
  ED50: 0.005 mg/kg
[3]
  Ratio (ratio of AD50 to ED50): 2440
[4]; [5]
  inhibition at 0.01 µM: 81%
[4]; [6]
  inhibition at 0.1 µM: 94%
[4]; [3H]naloxone 0.5 nM
  Ki: 1.84 nM

## COC1CCC(OC(=O)CCCC(=O)N[C@@H](CC2CCCCC2)CN2CC[C@@](C)(c3cccc(O)c3)[C@@H](C)C2)CC1 (stereo partly drawn) [Example 68]
[1]
  ED50: 18.8 mg/kg
[2]; 0.5 h, read-out: ED50
  ED50: 0.29 mg/kg
[3]
  Ratio (ratio of AD50 to ED50): 65
[4]; [7]
  inhibition at 0.01 µM: 68%
[4]; [8]
  inhibition at 0.1 µM: 95%

## COC1CCC(OC(=O)CCCC(=O)N[C@@H](CC2CCCCC2)CN2CC[C@](C)(c3cccc(O)c3)[C@H](C)C2)CC1 (stereo partly drawn) [Example 69]
[1]
  ED50: > 40 mg/kg
[2]; 0.5 h, read-out: ED50
  ED50: 0.03 mg/kg
[3]
  Ratio (ratio of AD50 to ED50): > 1333
[4]; [7]
  inhibition at 0.01 µM: 37%
[4]; [8]
  inhibition at 0.1 µM: 83%

## Cc1oc(=O)oc1COC(=O)CCCC(=O)N[C@@H](CC1CCCCC1)CN1CC[C@@](C)(c2cccc(O)c2)[C@@H](C)C1 [Example 70]
[1]
  ED50: 18.2 mg/kg
[2]
  ED50: 0.017 mg/kg
[3]
  Ratio (ratio of AD50 to ED50): 1070
[4]; [5]
  inhibition at 0.01 µM: 89%
[4]; [6]
  inhibition at 0.1 µM: 99%
[4]; [3H]naloxone 0.5 nM
  Ki: 1.78 nM
